Laboratory results: patent publication US20250312352A1, “GLP-1R MODULATING COMPOUNDS” (Gilead Sciences, Inc., priority 2021, published 2025)

Molecular target: T1, GLP-1R (Homo sapiens, UniProt P43220)
T1 construct: host or cells: CHO cells
Experiment: GLP-1R activation cAMP assay (Assay 1 or Assay 2)
Format: cell-based
Details: cAMP increase in CHO cells stably expressing GLP-1R; compounds run on one of the two cAMP assays
Outline: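 CHO cells stably expressing human GLP-1R were incubated 1 h in HBSS/20 mM HEPES/0.1% BSA, then exposed to 10-point agonist dilutions for 30 min at 37 °C. cAMP increase was measured with an HTRF Gs dynamic kit; EC50 from sigmoidal fit of response versus log concentration.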

T1 sequence (P43220 24-463): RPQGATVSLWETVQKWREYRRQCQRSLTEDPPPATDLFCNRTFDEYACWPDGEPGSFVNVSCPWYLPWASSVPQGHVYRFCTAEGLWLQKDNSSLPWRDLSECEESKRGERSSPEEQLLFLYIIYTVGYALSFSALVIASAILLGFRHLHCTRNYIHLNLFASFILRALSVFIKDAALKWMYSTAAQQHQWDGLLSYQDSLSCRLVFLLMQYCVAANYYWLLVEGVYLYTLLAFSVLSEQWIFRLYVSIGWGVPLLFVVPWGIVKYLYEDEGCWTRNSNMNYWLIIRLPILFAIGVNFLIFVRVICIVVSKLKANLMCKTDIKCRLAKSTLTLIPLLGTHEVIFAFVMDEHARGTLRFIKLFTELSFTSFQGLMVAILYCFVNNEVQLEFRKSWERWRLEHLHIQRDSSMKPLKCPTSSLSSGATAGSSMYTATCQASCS

Structure (SMILES)	EC50 [pM]
Cn1nncc1C#Cc1cnc(COc2cccc(-c3cc(F)c(Cc4nc5ccc(C(=O)O)cc5n4C[C@@H]4CCO4)cc3F)n2)c(F)c1 [Example 288, (S)-2-(2,5-difluoro-4-(6-((3-fluoro-5-((1-methyl-1H-1,2,3-triazol-5-yl)ethynyl)pyridin-2-yl)methoxy)pyridin-2-yl)benzyl)-1-(oxetan-2-ylmethyl)-1H-benzo[d]imidazole-6-carboxylic acid]	67
Cc1cc(C#Cc2cnn(C)c2)cnc1COc1cccc(-c2cc(F)c(Cc3nc4ccc(C(=O)O)cc4n3C[C@@H]3CCO3)cc2F)n1 [Example 289, (S)-2-(2,5-difluoro-4-(6-((3-methyl-5-((1-methyl-1H-pyrazol-4-yl)ethynyl)pyridin-2-yl)methoxy)pyridin-2-yl)benzyl)-1-(oxetan-2-ylmethyl)-1H-benzo[d]imidazole-6-carboxylic acid]	262
Cc1nnc(COc2cccc(-c3cc(F)c(Cc4nc5ccc(C(=O)O)cc5n4[C@@H]4COCC4(C)C)cc3F)n2)s1 [Example 290, (S)-2-(2,5-difluoro-4-(6-((5-methyl-1,3,4-thiadiazol-2-yl)methoxy)pyridin-2-yl)benzyl)-1-(4,4-dimethyltetrahydrofuran-3-yl)-1H-benzo[d]imidazole-6-carboxylic acid]	155
Cc1nc(C#Cc2cnc(COc3cccc(-c4cc(F)c(Cc5nc6ccc(C(=O)O)cc6n5C[C@@H]5CCO5)cc4F)n3)c(F)c2)cs1 [Example 291, (S)-2-(2,5-difluoro-4-(6-((3-fluoro-5-((2-methylthiazol-4-yl)ethynyl)pyridin-2-yl)methoxy)pyridin-2-yl)benzyl)-1-(oxetan-2-ylmethyl)-1H-benzo[d]imidazole-6-carboxylic acid]	689
O=C(O)c1ccc2nc(Cc3cc(F)c(-c4cccc(OCc5ncc(C#Cc6cscn6)cc5F)n4)cc3F)n(C[C@@H]3CCO3)c2c1 [Example 292, (S)-2-(2,5-difluoro-4-(6-((3-fluoro-5-(thiazol-4-ylethynyl)pyridin-2-yl)methoxy)pyridin-2-yl)benzyl)-1-(oxetan-2-ylmethyl)-1H-benzo[d]imidazole-6-carboxylic acid]	499
Cn1cncc1C#Cc1cnc(COc2cccc(-c3cc(F)c(Cc4nc5ccc(C(=O)O)cc5n4C[C@@H]4CCO4)cc3F)n2)c(F)c1 [Example 293, (S)-2-(2,5-difluoro-4-(6-((3-fluoro-5-((1-methyl-1H-imidazol-5-yl)ethynyl)pyridin-2-yl)methoxy)pyridin-2-yl)benzyl)-1-(oxetan-2-ylmethyl)-1H-benzo[d]imidazole-6-carboxylic acid]	184
COc1ncc(C#Cc2cnc(COc3cccc(-c4cc(F)c(Cc5nc6ccc(C(=O)O)cc6n5C[C@@H]5CCO5)cc4F)n3)c(F)c2)s1 [Example 294, (S)-2-(2,5-difluoro-4-(6-((3-fluoro-5-((2-methoxythiazol-5-yl)ethynyl)pyridin-2-yl)methoxy)pyridin-2-yl)benzyl)-1-(oxetan-2-ylmethyl)-1H-benzo[d]imidazole-6-carboxylic acid]	182
Cn1cc(C#Cc2ccc(COc3nc(-c4cc(F)c(Cc5nc6c(F)cc(C(=O)O)cc6n5C[C@@H]5CCO5)cc4F)ccc3F)cn2)cn1 [Example 295, (S)-2-(2,5-difluoro-4-(5-fluoro-6-((6-((1-methyl-1H-pyrazol-4-yl)ethynyl)pyridin-3-yl)methoxy)pyridin-2-yl)benzyl)-4-fluoro-1-(oxetan-2-ylmethyl)-1H-benzo[d]imidazole-6-carboxylic acid]	202
Cn1cc(C#Cc2cnc(COc3nc(-c4cc(F)c(Cc5nc6c(F)cc(C(=O)O)cc6n5C[C@@H]5CCO5)cc4F)ccc3F)c(F)c2)cn1 [Example 296, (S)-2-(2,5-difluoro-4-(5-fluoro-6-((3-fluoro-5-((1-methyl-1H-pyrazol-4-yl)ethynyl)pyridin-2-yl)methoxy)pyridin-2-yl)benzyl)-4-fluoro-1-(oxetan-2-ylmethyl)-1H-benzo[d]imidazole-6-carboxylic acid]	36
Cc1nnc(COc2nc(-c3cc(F)c(Cc4nc5c(F)cc(C(=O)O)cc5n4C[C@@H]4CCO4)cc3F)ccc2F)s1 [Example 297, (S)-2-(2,5-difluoro-4-(5-fluoro-6-((5-methyl-1,3,4-thiadiazol-2-yl)methoxy)pyridin-2-yl)benzyl)-4-fluoro-1-(oxetan-2-ylmethyl)-1H-benzo[d]imidazole-6-carboxylic acid]	508
COCc1nnc(COc2cccc(-c3cc(F)c(Cc4nc5ccc(C(=O)O)cc5n4C[C@@H]4CCO4)cc3F)n2)s1 [Example 298, (S)-2-(2,5-difluoro-4-(6-((5-(methoxymethyl)-1,3,4-thiadiazol-2-yl)methoxy)pyridin-2-yl)benzyl)-1-(oxetan-2-ylmethyl)-1H-benzo[d]imidazole-6-carboxylic acid]	466
CCc1nnc(COc2cccc(-c3cc(F)c(Cc4nc5ccc(C(=O)O)cc5n4C[C@@H]4CCO4)cc3F)n2)s1 [Example 299, (S)-2-(4-(6-((5-ethyl-1,3,4-thiadiazol-2-yl)methoxy)pyridin-2-yl)-2,5-difluorobenzyl)-1-(oxetan-2-ylmethyl)-1H-benzo[d]imidazole-6-carboxylic acid]	2630
Cn1cc(C#Cc2cc(Cl)c(COc3cccc(-c4cc(F)c(Cc5nc6ccc(C(=O)O)cc6n5C[C@@H]5CCO5)cc4F)n3)cn2)cn1 [Example 300, (S)-2-(4-(6-((4-chloro-6-((1-methyl-1H-pyrazol-4-yl)ethynyl)pyridin-3-yl)methoxy)pyridin-2-yl)-2,5-difluorobenzyl)-1-(oxetan-2-ylmethyl)-1H-benzo[d]imidazole-6-carboxylic acid]	823
Cn1cc(C#Cc2ccc(COc3cccc(-c4cc(F)c(Cc5nc6ccc(C(=O)O)cc6n5C[C@@H]5CCO5)cc4F)n3)c(F)c2)nn1 [Example 301, (S)-2-(2,5-difluoro-4-(6-((2-fluoro-4-((1-methyl-1H-1,2,3-triazol-4-yl)ethynyl)benzyl)oxy)pyridin-2-yl)benzyl)-1-(oxetan-2-ylmethyl)-1H-benzo[d]imidazole-6-carboxylic acid]	341
Cn1cc(C#Cc2cnc(COc3cccc(-c4cc(F)c(Cc5nc6ccc(C(=O)O)cc6n5C[C@@H]5CCO5)cc4F)n3)c(Cl)c2)cn1 [Example 302, (S)-2-(4-(6-((3-chloro-5-((1-methyl-1H-pyrazol-4-yl)ethynyl)pyridin-2-yl)methoxy)pyridin-2-yl)-2,5-difluorobenzyl)-1-(oxetan-2-ylmethyl)-1H-benzo[d]imidazole-6-carboxylic acid]	567
O=C(O)c1ccc2nc(Cc3cc(F)c(-c4cccc(OCc5ncc(C#Cc6cncs6)cc5F)n4)cc3F)n(C[C@@H]3CCO3)c2c1 [Example 303, (S)-2-(2,5-difluoro-4-(6-((3-fluoro-5-(thiazol-5-ylethynyl)pyridin-2-yl)methoxy)pyridin-2-yl)benzyl)-1-(oxetan-2-ylmethyl)-1H-benzo[d]imidazole-6-carboxylic acid]	252
COc1cc(C#Cc2cnn(C)c2)ccc1COc1cccc(-c2cc(F)c(Cc3nc4ccc(C(=O)O)cc4n3C[C@@H]3CCO3)cc2F)n1 [Example 304, (S)-2-(2,5-difluoro-4-(6-((2-methoxy-4-((1-methyl-1H-pyrazol-4-yl)ethynyl)benzyl)oxy)pyridin-2-yl)benzyl)-1-(oxetan-2-ylmethyl)-1H-benzo[d]imidazole-6-carboxylic acid]	524
